Experimental data published in the NIST ThermoML archive (doi:10.1021/je0340046).
Values joined by “and” are separate entries in the source; they are usually repeats but may differ in a detail not shown here. Equal entries are not always repeated.

Settings: Liquid, Closed cell (Static) method

COC [dimethyl ether]
Settings	vapor or sublimation pressure
233.13 K	54.61 kPa
238.13 K	68.49 kPa
243.16 K	85.57 kPa
248.15 K	105.59 kPa
253.15 K	129.42 kPa
258.16 K	157.53 kPa
263.16 K	190.44 kPa
268.16 K	228.48 kPa
273.15 K	272.17 kPa
278.14 K	321.87 kPa
283.16 K	378.66 kPa
288.17 K	443.57 kPa
293.16 K	515.53 kPa
298.17 K	596.21 kPa
303.16 K	687.37 kPa
305.16 K	726.26 kPa
308.16 K	787.07 kPa
313.16 K	897.59 kPa
316.15 K	968.55 kPa
318.16 K	1018.9 kPa
323.15 K	1152.3 kPa
328.15 K	1298.2 kPa
333.16 K	1457.5 kPa and 1457.8 kPa
338.15 K	1631 kPa
343.15 K	1818.8 kPa
348.15 K	2022.5 kPa
353.15 K	2242.7 kPa
353.16 K	2243.1 kPa
358.14 K	2479.9 kPa
363.15 K	2735.7 kPa
368.16 K	3010.8 kPa
373.15 K	3305.7 kPa
378.15 K	3622.6 kPa
383.14 K	3962.2 kPa
388.15 K	4331.5 kPa
393.16 K	4725 kPa
398.16 K	5146.8 kPa
400.38 K	5355.8 kPa
